Measured values taken from patent publication US20220323594A1, “LIPIDATED CATIONIC PEPTIDE-PEG COMPOSITIONS FOR NUCLEIC ACID DELIVERY” (NUTCRACKER THERAPEUTICS, INC., priority 2019, published 2022).
Where two headings read alike, the source gives them in different places.

Experiments:
[1] = Dynamic light scattering (DLS) of mRNA/peptoid formulations: particle size and polydispersity; format: physicochemical; conditions: Fluc mRNA/peptoid formulation; for Size PDI: size polydispersity index by DLS, 5:1 mass ratio; for Size (nm): volume average particle size/diameter by DLS, 5:1 mass ratio peptoid:cargo
Procedure: (§1) To prepare nanoparticle formulations, the amino lipidated peptoid is mixed by pipetting with nucleic acid at a mass ratio between approximately 1:1 (peptoid:cargo) and 20:1. Prior to formulation, amino lipidated peptoid and nucleic acid cargo were diluted in ethanol and acidic buffer (PBS adjusted to pH 5.5 with 0.1 M HCl) respectively to a volume ratio of 1:3 and to target a final cargo concentration of approximately 0.05 mg/mL to 0.2 mg/mL. The exemplary amino lipidated cationic peptoids described in Example 2 were combined with firefly luciferase (Fluc) mRNA to form nanoparticle compositions to be evaluated for therapeutic and/or prophylactic purposes in vitro or in vivo. The formulations were prepared according to the protocol of Example 3 and mixed by simple pipetting. The mRNA/peptoid formulation at a 5:1 mass ratio of peptoid:cargo were evaluated by dynamic light scattering (DLS) in order to determine the volume average particle size/diameter (nm) of the mRNA/peptoid complex and the size polydispersity index (PDI) within the formulation. The percentage of mRNA encapsulation for each formulation of the exemplary compounds were determined by fluorescence of the Qubit RNA HS (Invitrogen) dye before and after lysis of particles by Triton X-100.

[2] = mRNA encapsulation by fluorescence of Qubit RNA HS dye before and after lysis with Triton X-100; format: physicochemical; conditions: percentage of mRNA encapsulation; Fluc mRNA/peptoid formulation, 5:1 mass ratio
Procedure: as §1, with “The” for “To prepare nanoparticle formulations, the amino lipidated peptoid is mixed by pipetting with nucleic acid at a mass ratio between approximately 1:1 (peptoid:cargo) and 20:1. Prior to formulation, amino lipidated peptoid and nucleic acid cargo were diluted in ethanol and acidic buffer (PBS adjusted to pH 5.5 with 0.1 M HCl) respectively to a volume ratio of 1:3 and to target a final cargo concentration of approximately 0.05 mg/mL to 0.2 mg/mL. The”

HeLa cells [3] = assay: In vitro expression of firefly luciferase (Fluc) after treatment with Fluc mRNA/amino lipidated peptoid formulations, no PEG or 2% DMG-PEG2000; format: cell-based
Procedure: The efficacy of mRNA/amino lipidated peptoid formulations was evaluated in vitro based on their ability to deliver the firefly luciferase (Fluc) reporter gene to cultured cells. Amino lipidated peptoids were combined with Fluc mRNA at a 5:1 w/w ratio, and the resulting particles were added to cultured HeLa cells at a dose of 100 ng/well (in 100 μL total volume). The resulting luciferase expression (RLU) was measured by a luminescence plate reader after 6 hours and 24 hours of treatment. […] In addition to evaluating nanoparticle complexes formed between mRNA cargos and amino lipidated peptoids alone, multicomponent formulations containing a small amount of PEG-lipid DMG-PEG2000 were also tested for in vitro Fluc mRNA delivery. In these formulations, DMG-PEG2000 was pre-mixed with candidate peptoid at an overall 2% incorporation (w/w), while maintaining the same 5:1 mass ratio of peptoid:mRNA used previously.

HeLa cells [4] = assay: In vitro Fluc expression with variable peptoid:mRNA mass ratio, 2% DMG-PEG2000; format: cell-based; conditions: 24 h; for Observed Luciferase Expression (RLU) for Given Formulation Mass Ratio 2:1: 2% (w/w) DMG-PEG2000, peptoid:mRNA 2:1; for Observed Luciferase Expression (RLU) for Given Formulation Mass Ratio 3.5:1: 2% (w/w) DMG-PEG2000, peptoid:mRNA 3.5:1; for Observed Luciferase Expression (RLU) for Given Formulation Mass Ratio 5:1: 2% (w/w) DMG-PEG2000, peptoid:mRNA 5:1; for Observed Luciferase Expression (RLU) for Given Formulation Mass Ratio 7.5:1: 2% (w/w) DMG-PEG2000, peptoid:mRNA 7.5:1
Procedure: The charge ratio dependence of amino lipidated peptoid delivery vehicles was evaluated by formulating particles between Fluc mRNA and delivery vehicles at varying mass ratios. Formulations were varied between 2:1 and 7.5:1 peptoid:mRNA (w/w) ratios (2:1, 3.5:1, 5:1 and 7.5:1). In addition, the role of DMG-PEG2000 was also explored with the mass ratios, either by excluding DMG-PEG2000 or incorporating DMG-PEG2000 at 2% (w/w) relative to amino lipidated peptoid. Fluc expression from these formulations was measured in HeLa cells following treatment for 24 hours. […] FIGS. 6B and 6C show plots of the average bioluminescence (RLU) for HeLa cells treated with the formulations of exemplary amino lipidated cationic peptoid compounds 1-36, all formulated with 2% w/w DMG-PEG2000.

[5] = MTT viability assay after treatment with Fluc mRNA/amino lipidated peptoid formulations; format: cell-based; conditions: human, HeLa cells
Procedure: Cellular viability was measured following treatment with Fluc mRNA/amino lipidated peptoid formulations by a traditional MTT viability assay. […] In this assay, cells were first treated with peptoid formulations at a final mRNA concentration of 100 ng/well for 8 hours. Cells were then left to grow for 48 hours, after which time they were exposed to 1.5 mg/mL 3-(4,5-dimethylthiazol-2-yl)-2,5-diphenyltetrazolium bromide (MTT) for 2 hours, then lysed using a solubilizing solution of 10% Triton-X 100 in acidic isopropanol (0.1N HCl). The signal corresponding to reduced formazan was normalized to untreated cells to provide a relative viability of each treated condition. […] In general, nearly all conditions maintained at least 80% viability with the only exceptions being formulations of compound 5, 34, and 35.

[6] = no PEG, peptoid:Fluc mRNA 5:1 w/w, 100 ng/well, 6 h of treatment
[7] = no PEG, peptoid:Fluc mRNA 5:1 w/w, 100 ng/well, 24 h of treatment
[8] = with 2% (w/w) DMG-PEG2000, peptoid:mRNA 5:1, 6 h after treatment
[9] = with 2% (w/w) DMG-PEG2000, peptoid:mRNA 5:1, 24 h after treatment

| SMILES | Size PDI [1] | Size (nm) [1] | % Encapsulation [2] | Luciferase Expression (RLU) 6 h (HeLa cells [3]; [6]) | Luciferase Expression (RLU) 24 h (HeLa cells [3]; [7]) | Luciferase Expression (RLU) 6 h (HeLa cells [3]; [8]) | Luciferase Expression (RLU) 24 h (HeLa cells [3]; [9]) | Observed Luciferase Expression (RLU) for Given Formulation Mass Ratio 2:1 (HeLa cells [4]) | Observed Luciferase Expression (RLU) for Given Formulation Mass Ratio 3.5:1 (HeLa cells [4]) | Observed Luciferase Expression (RLU) for Given Formulation Mass Ratio 5:1 (HeLa cells [4]) | Observed Luciferase Expression (RLU) for Given Formulation Mass Ratio 7.5:1 (HeLa cells [4]) | viability at 8 h, 500 ng/well ([5]; MTT, 2% (w/w) DMG-PEG2000, 5:1 mass ratio, 100 ng/well mRNA for 8 h then 48 h growth, normalized to untreated cells, read-out: Relative Viability (%) 2% PEG) | viability at 8 h, 500 ng/well ([5]; MTT, formulation alone (no PEG), 5:1 mass ratio, 100 ng/well mRNA for 8 h then 48 h growth, normalized to untreated cells, read-out: Relative Viability (%) No PEG) | viability at 8 h, 500 ng/well ([5]; Relative Viability (%) 2% PEG) | viability at 8 h, 500 ng/well ([5]; Relative Viability (%) No PEG) |
| --- | --- | --- | --- | --- | --- | --- | --- | --- | --- | --- | --- | --- | --- | --- | --- |
| CCCCCCCCCCN(CC(N)=O)C(=O)CN(CCCCCCCCCC)C(=O)CN(CCCCCCCCCC)C(=O)CN(CCc1ccccc1)C(=O)CN(CCc1ccccc1)C(=O)CN(CCN)C(=O)CN(CCc1ccccc1)C(=O)CN(CCc1ccccc1)C(=O)CN(CCN)C(=O)CN(CCc1ccccc1)C(=O)CN(CCc1ccccc1)C(=O)CNCCN [Compound 7] | 0.177 | 296.7 nm | 88.4% | 6.45E+03 RLU | 9.71E+03 RLU | 2.77E+03 RLU | 1.81E+03 RLU | 1.61E+04 RLU | 1.43E+04 RLU | 2.20E+04 RLU | 5.92E+03 RLU | 96% | 78% | – | – |
| CCCCCCCCCCN(CC(N)=O)C(=O)CN(CCCCCCCCCC)C(=O)CN(CCc1ccccc1)C(=O)CN(CCc1ccccc1)C(=O)CNCCN [Compound 9] | 0.122 | 367.9 nm | 73.9% | 1.52E+02 RLU | 8.57E+01 RLU | 1.38E+02 RLU | 3.33E+01 RLU | 2.28E+02 RLU | 3.67E+02 RLU | 9.91E+02 RLU | 1.82E+02 RLU | – | – | 107% | 99.3% |
| CCCCCCCCCCN(CC(N)=O)C(=O)CN(CCCCCCCCCC)C(=O)CN(CCc1ccccc1)C(=O)CN(CCc1ccccc1)C(=O)CN(CCN)C(=O)CN(CCc1ccccc1)C(=O)CN(CCc1ccccc1)C(=O)CN(CCN)C(=O)CN(CCc1ccccc1)C(=O)CN(CCc1ccccc1)C(=O)CN(CCN)C(=O)CN(CCc1ccccc1)C(=O)CN(CCc1ccccc1)C(=O)CNCCN [Compound 11] | 0.038 | 354.9 nm | 87.8% | 1.15E+03 RLU | 1.22E+03 RLU | 3.90E+02 RLU | 5.23E+02 RLU | 2.79E+04 RLU | 3.14E+04 RLU | 4.48E+04 RLU | 4.36E+03 RLU | – | – | 104% | 104% |
